Key:
EG7 (OVA-expressing EL4) = assay type: in vivo, mouse (C57BL/6NCrj); details: with peptide vaccine; EG7 transplanted 21 days after peptide administration; followed to day 28; compared with PBS; FIG. 5
Experimental: Twenty-one days after peptide administration, 5×10^6 EG7 (OVA-expressing EL4: ATCC) suspended in 100 μL PBS was intradermally transplanted at the right flank using a 27 G injection needle after shaving. Tumor diameters (minimum diameter, maximum diameter) were measured using electronic calipers twice a week from 1 week to 28 days after EG7 transplantation, and tumor volumes were calculated.

cytokine production = details: in vivo; cited from earlier work
lymphocytes = details: in vivo; cited from earlier work

Structure (SMILES) | tumor growth suppression (tumor volume) (EG7 (OVA-expressing EL4)) | time from which cytokine production is exhibited after administration (cytokine production) [h] | time at which the reduction in lymphocytes reaches a peak (lymphocytes) [days]
CCOCc1nc2c(N)nc3ccccc3c2n1CC(C)(C)O [R848] | a slight suppression against proliferation was observed | ≥ 1 | 
O=P1(N(CCCl)CCCl)NCCCO1 (stereo not drawn) [cyclophosphamide] |  |  | 3 to 4
